# Experimental data: patent publication US8158589B2, “Peptides with the capacity to bind to transforming growth factor β1 (TGF-β1)” (Proyecto Biomedicine Cima, S.L., priority 2003, dated 2012)
# “Also recorded” adds a separate entry of the source. Ends that are not written are not given here.
# Tests used:
# TGF-β1 [1] = target: TGF-β1 (Homo sapiens, UniProt P01137); type: cell-based; parameters: purchased Roche; host or cells: added to Mv-1-Lu (CCL-64) mink lung epithelial cells
# Source text: The cell line Mv-1-Lu (CCL-64, […], Virginia, USA) derives from mink pulmonary epithelium, grows as a monolayer, and responds to the presence of TGF-β1 by decreasing its proliferation (FIG. 5). Thus, the peptide-mediated inhibition of this cytokine is able to restore cell growth and reflects the capacity of the different peptides to inhibit the biological activity of TGF-β1 in vitro. The peptides tested were obtained by peptide synthesis, in accordance to conventional procedures (Merrifield R B. J Am Chem Soc 1963; 85:2149-2154; Atherton E et al. J Chem Soc Perkin Trans 1981; 1:538-546).
# The Mv-1-Lu cells are cultured to confluence in complete medium [RPMI-1640 supplemented with L-glutamine, sodium pyruvate, antibiotics and 10% fetal bovine serum (FBS)] at 37° C. and in 5% CO2 in 162 cm^2 bottles (Costar Corporation, CA, USA). Following trypsinization, the cells are cultured in 200 μl of complete medium in 96-well plates at an initial density of 5,000 cells/well at 37° C. and in 5% CO2 during 6 hours to ensure adhesion. Then, different concentrations of the peptides to be tested are added, starting from 200 μg/ml, and following 200 pg/ml of TGF-β1 (Roche) are added. After 12 hours of incubation 1 μCi of methyl-3H-thymidine (Amersham Life Science, Buckinghamshire, United Kingdom) is added per well in 25 μl of clean medium (RPMI-1640). The plate is incubated for 12 more hours under the same conditions. Finally, the cells are harvested (Filtermate 196 Harvester, Packard), transferring the tritiated thymidine, incorporated in the course of DNA synthesis, to plates (UniFilter-96 GF/C®, Perkin Elmer). Following the addition of scintillation fluid, the radioactivity was quantified using a scintillation counter (Top Count, Microplate Scintillation Counter, Packard). As positive and negative control, use was made of the incorporation of tritiated thymidine in the absence and presence of TGF-β1, respectively. The inhibition of TGF-β1 activity in this test was calculated based on the following formula: […]
# The negative control represents the incorporation of tritiated thymidine in the presence of TGF-β1 but in the absence of peptide, whereas the positive control refers to the incorporation of tritiated thymidine in the absence of TGF-β1 and peptide. Thus, according to the capacity of the peptides to revert the cytokine repressor effect on Mv-1-Lu cell line proliferation, percentage of TGF-β1 biological activity inhibition by the peptides can be measured (Table 2).
# Comparisons have been made of the activity of truncated peptides (derived from peptide sequence SEQ ID NO: 17) versus the complete sequence, in terms of the capacity to revert the suppressor effect of TGF-β1 upon proliferation of the Mv-1-Lu cell line. To this effect, and to determine the minimum sequence of peptide SEQ ID NO: 17 capable of inhibiting the biological activity of TGF-β1 in vitro, truncated versions of this peptide were synthesized, with truncation at the N-terminal end, C-terminal end or in both ends of the molecule. The peptides tested were obtained by peptide synthesis following conventional procedures (Merrifield R B. J Am Chem Soc 1963; 85:2149-2154; Atherton E et al. J Chem Soc Perkin Trans 1981; 1:538-546). Following the same methodology described in Example 2, the activity of truncated peptides versus the complete sequence of the peptide SEQ ID NO: 17 was quantified, in terms of a proliferation assay of the Mv-1-Lu cell line.
# TGF-β1 [2] = target: T1, TGF-β1 (Mus musculus, UniProt P04202); assay: Model of acute liver damage induced by CCl4, type I collagen mRNA by real time PCR; type: in vivo, mice
# T1 construct: from tissue; host or cells: liver of Balb/C mice (CCl4 model); lung of C57BL/6 mice (bleomycin model)
# T1 sequence (P04202 279-390 limits assumed): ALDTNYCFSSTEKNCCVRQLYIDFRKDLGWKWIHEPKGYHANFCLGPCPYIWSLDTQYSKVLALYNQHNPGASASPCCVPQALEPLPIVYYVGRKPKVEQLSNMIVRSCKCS
# Procedure, shortened: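 Female Balb/C mice (25–30 g) received a single oral dose of CCl4 at 2 µl/g body weight in corn oil (1:1). Peptide was given at 50 µg in 500 µl of 1% saline in DMSO every 24 h. At 72 h, liver type I collagen mRNA was quantified by real-time PCR against corn-oil controls.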
# Chain of TGF-β1 (Homo sapiens, UniProt P01137) (P01137 279-390 limits assumed, species assumed): as the sequence (P04202 279-390 limits assumed) above, with S75A counted along it
sequence,measurement,setting,value
"KRIWFIPRSSWYERA [SEQ ID NO: 17, KRIWFIPRSSWYERA]",% Inhibition of in vitro TGF-β1 biological activity,TGF-β1 [1],28.5%
same,% Inhibition of type I collagen mRNA induction (in vivo TGF-β1 biological activity),"TGF-β1 [2]; Balb/C mice, oral CCl4, 50 μg of peptide every 24 h, sacrifice after 72 hours",93.09 ± 9.6%
same,inhibition of the biological activity of TGF-β1 in vivo (in words),"TGF-β1 [2]; acute liver damage, type I collagen mRNA",most active peptide; also recorded: much greater extent; also recorded: inhibitory capacity; also recorded: capable of inhibiting the expression of collagen type I mRNA
